In PMC4966941 (PLoS ONE, 2016):
Structures can show the parent of a compound that is named as a salt.

What was measured:
[1] = system: osteoblast (MC3T3-E1) cells; parameters: method as in Antoci et al. [39]; conditions: ref Antoci et al. [39]; cited from earlier work
[2] = In-vivo pharmacokinetic study: vancomycin in tibia, muscle and plasma after intramedullary delivery (HPLC); conditions: rat; for Mean vancomycin concentration in gastrocnemius muscle (ug drug/g tissue, AVE) / Mean vancomycin concentration in tibia (ug drug/g tissue, AVE): single 25 mg/Kg intramedullary dose to tibia, mean of n = 4; for Vancomycin in muscle, ug drug/g tissue / Vancomycin in plasma: single rat
[3] = system: Staphylococcus aureus Xen 36; assay: In-vivo infection prevention study: microbiological analysis of explanted tissue
Procedure: Bioluminescent strain Staphylococcus aureus Xen 36 (Caliper LifeSciences, Alameda, CA) was used to develop bone infection. The strain was stored in a glycerol (20% v/v) and Brain Heart Infusion (BHI) suspension at -80°C until required. Bacteria were subcultured onto an LB plate (Luria-Bertani, Miller broth mixed with 1.2% (w/v) Technical Agar (Difco, Sparks, MD.)), at 37°C overnight. Five colonies were then transferred to 3 mL LB broth and grown in shaker incubator (200 rpm), at 37°C for 2.5 h. Two milliliters of the bacterial suspension was transferred to 100 mL LB broth and grown for a further 4 h, until the cells reached exponential growth. Bacterial suspension was transferred into 50 mL centrifuge tubes and cells centrifuged at ~3,000 rpm for 30 min. Supernatants were discarded and pellets were re-suspended in 15 mL Phosphate Buffered Saline (PBS). Cells were then mixed by vortexing and the centrifugation process was repeated. This cell washing process was repeated three times. The final washed and pelleted cells were re-suspended in a total of 10 mL PBS, and mixed by vortexing. The cell suspension was then ten-fold serially diluted. The concentration of the cell suspension was then determined using the spread plate technique and spreading 100 μL of the various dilutions onto LB plates, in duplicate. Plates were incubated at 37°C overnight before counting colony forming units (CFU). The viable count was then used to dilute the washed cell suspension to the desired concentrations (i.e., average Log10 7.82 CFU/mL or 6.62x10^7 CFU/mL) using PBS. Two hundred microliter aliquots were dispensed into microfuge tubes and labeled bacterial inoculum. To inoculate the rat tibias the bacterial inoculum was mixed with equal volume of 1% (w/v) molten agarose (Pulsed field certified agarose, Biorad, Hercules, CA). Mixing the bacteria with agarose helped to control seepage of the inoculum and minimize contamination of the surrounding muscle.
After sacrificing the rats, the tibia and gastrocnemius muscle surrounding the surgical site were explanted, weighed separately and flash frozen with liquid nitrogen prior to pulverizing in a freezer mill (6770 Spex SamplePrep, Metuchen, NJ.). The powdered samples were then re-weighed, suspended (i.e., 1:10) in phosphate buffered saline (PBS), vortexed, and 10-fold serially diluted before plating (in duplicate) 100 μL of suspensions onto LB plates (Luria-Bertani, Miller broth mixed with 1.2% (w/v) Technical Agar (Difco, Sparks, MD.)). Plates were incubated at 37°C for 18–24 h and the bacterial load (colony forming units) per sample was calculated based on the number of colonies seen at specific dilutions. Confirmation of isolating S. aureus Xen 36 colonies from samples was determined using the IVIS (Lumina II, Caliper Life Science, Hopkinton, MA.). Non-bioluminescent colonies were confirmed as S. aureus using Gram staining, catalase test and Color Staph ID kit (Sure-Vue, Fisher Scientific, Houston TX.).

[4] = system: human corneal endothelial cells; parameters: method as in Yoeruek et al. [40]; conditions: ref Yoeruek et al. [40]; cited from earlier work
[5] = system: osteosarcoma cell line MG-63; parameters: method as in Edin et al. [38]; conditions: MG-63 in vitro; ref Edin et al. [38]; cited from earlier work
[6] = single 25 mg/Kg intramedullary dose, 4 h, HPLC, sample 1-1
[7] = single 25 mg/Kg intramedullary dose, 4 h, HPLC, sample 1-3
[8] = single 25 mg/Kg intramedullary dose, 4 h, HPLC, sample 1-4
[9] = single 25 mg/Kg intramedullary dose, 6 h, HPLC, sample 2-1
[10] = single 25 mg/Kg intramedullary dose, 6 h, HPLC, sample 2-2
[11] = single 25 mg/Kg intramedullary dose, 6 h, HPLC, sample 2-3
[12] = single 25 mg/Kg intramedullary dose, 6 h, HPLC, sample 2-4
[13] = single 25 mg/Kg intramedullary dose, 12 h, HPLC, sample 3-1
[14] = single 25 mg/Kg intramedullary dose, 12 h, HPLC, sample 3-2
[15] = single 25 mg/Kg intramedullary dose, 12 h, HPLC, sample 3-3
[16] = single 25 mg/Kg intramedullary dose, 12 h, HPLC, sample 3-4
[17] = single 25 mg/Kg intramedullary dose, 24 h, HPLC, sample 4-1
[18] = single 25 mg/Kg intramedullary dose, 24 h, HPLC, sample 4-2
[19] = single 25 mg/Kg intramedullary dose, 24 h, HPLC, sample 4-3
[20] = single 25 mg/Kg intramedullary dose, 24 h, HPLC, sample 4-4
[21] = single 25 mg/Kg intramedullary dose, 48 h, HPLC, sample 5-1
[22] = single 25 mg/Kg intramedullary dose, 48 h, HPLC, sample 5-2
[23] = single 25 mg/Kg intramedullary dose, 48 h, HPLC, sample 5-4
[24] = single 25 mg/Kg intramedullary dose, 72 h, HPLC, sample 6-2
[25] = single 25 mg/Kg intramedullary dose, 72 h, HPLC, sample 6-3
[26] = single 25 mg/Kg intramedullary dose, 72 h, HPLC, sample 6-4
[27] = single 25 mg/Kg intramedullary dose, 96 h, HPLC, sample 7-1
[28] = single 25 mg/Kg intramedullary dose, 96 h, HPLC, sample 7-2
[29] = single 25 mg/Kg intramedullary dose, 96 h, HPLC, sample 7-3
[30] = single 25 mg/Kg intramedullary dose, 96 h, HPLC, sample 7-4
[31] = single 25 mg/Kg intramedullary dose, HPLC

CN[C@H](CC(C)C)C(=O)N[C@H]1C(=O)N[C@@H](CC(N)=O)C(=O)N[C@H]2C(=O)N[C@H]3C(=O)N[C@H](C(=O)N[C@H](C(=O)O)c4cc(O)cc(O)c4-c4cc3ccc4O)[C@H](O)c3ccc(c(Cl)c3)Oc3cc2cc(c3O[C@@H]2O[C@H](CO)[C@@H](O)[C@H](O)[C@H]2O[C@H]2C[C@](C)(N)[C@H](O)[C@H](C)O2)Oc2ccc(cc2Cl)[C@H]1O [vancomycin, vancomycin hydrochloride]
Doses that severely decreased cellular proliferation [1]: greater than 2 mg/mL
Therapeutic or supra-therapeutic bone concentrations of vancomycin ([2]; local delivery to the medullary canal): > 100 µg/mL
Time the infused drug stays in the bone ([2]; single 25 mg/Kg intramedullary dose): at least 96 hours
Mean vancomycin concentration in gastrocnemius muscle (ug drug/g tissue, AVE) ([2]; 4 h, HPLC): 167.793 µg/g
Mean vancomycin concentration in tibia (ug drug/g tissue, AVE) ([2]; 4 h, HPLC): 818.068 µg/g
Mean vancomycin concentration in gastrocnemius muscle (ug drug/g tissue, AVE) ([2]; 6 h, HPLC): 90.1696 µg/g
Mean vancomycin concentration in tibia (ug drug/g tissue, AVE) ([2]; 6 h, HPLC): 784.095 µg/g
Mean vancomycin concentration in gastrocnemius muscle (ug drug/g tissue, AVE) ([2]; 12 h, HPLC): 29.0616 µg/g
Mean vancomycin concentration in tibia (ug drug/g tissue, AVE) ([2]; 12 h, HPLC): 359.143 µg/g
Mean vancomycin concentration in gastrocnemius muscle (ug drug/g tissue, AVE) ([2]; 24 h, HPLC): 0 µg/g
Mean vancomycin concentration in gastrocnemius muscle (ug drug/g tissue, AVE) ([2]; 48 h, HPLC): 0.99 µg/g
Mean vancomycin concentration in tibia (ug drug/g tissue, AVE) ([2]; 48 h, HPLC): 515.375 µg/g
Mean vancomycin concentration in gastrocnemius muscle (ug drug/g tissue, AVE) ([2]; 72 h, HPLC): 0.6895 µg/g
Mean vancomycin concentration in tibia (ug drug/g tissue, AVE) ([2]; 72 h, HPLC): 130.325 µg/g
Mean vancomycin concentration in gastrocnemius muscle (ug drug/g tissue, AVE) ([2]; 96 h, HPLC): 1.205 µg/g
Mean vancomycin concentration in tibia (ug drug/g tissue, AVE) ([2]; 96 h, HPLC): 110.095 µg/g
Vancomycin in muscle, ug drug/g tissue [2, 6]: 0 ug drug/g tissue
Vancomycin in plasma [2, 6]: 2.855 µg/mL
Vancomycin in muscle, ug drug/g tissue ([2]; single 25 mg/Kg intramedullary dose, 4 h, HPLC, sample 1-2): 0 ug drug/g tissue
Vancomycin in muscle, ug drug/g tissue [2, 7]: 0 ug drug/g tissue
Vancomycin in plasma [2, 7]: 2.69 µg/mL
Vancomycin in muscle, ug drug/g tissue [2, 8]: 671.173 ug drug/g tissue
Vancomycin in plasma [2, 8]: 8.576 µg/mL
Vancomycin in muscle, ug drug/g tissue [2, 9]: 0 ug drug/g tissue
Vancomycin in plasma [2, 9]: 0.1311 µg/mL
Vancomycin in muscle, ug drug/g tissue [2, 10]: 359.037 ug drug/g tissue
Vancomycin in plasma [2, 10]: 3.7319 µg/mL
Vancomycin in muscle, ug drug/g tissue [2, 11]: 0 ug drug/g tissue
Vancomycin in plasma [2, 11]: -0.165 µg/mL
Vancomycin in muscle, ug drug/g tissue [2, 12]: 1.642 ug drug/g tissue
Vancomycin in plasma [2, 12]: 0.01263 µg/mL
Vancomycin in muscle, ug drug/g tissue [2, 13]: 0 ug drug/g tissue
Vancomycin in plasma [2, 13]: -0.165 µg/mL
Vancomycin in muscle, ug drug/g tissue [2, 14]: 114.004 ug drug/g tissue
Vancomycin in plasma [2, 14]: 0.9602 µg/mL
Vancomycin in muscle, ug drug/g tissue [2, 15]: 2.243 ug drug/g tissue
Vancomycin in plasma [2, 15]: 1.434 µg/mL
Vancomycin in muscle, ug drug/g tissue [2, 16]: 0 ug drug/g tissue
Vancomycin in plasma [2, 16]: 0.747 µg/mL
Vancomycin in muscle, ug drug/g tissue [2, 17]: 0 ug drug/g tissue
Vancomycin in plasma [2, 17]: 0.2258 µg/mL
Vancomycin in muscle, ug drug/g tissue [2, 18]: 0 ug drug/g tissue
Vancomycin in plasma [2, 18]: 0.9365 µg/mL
Vancomycin in muscle, ug drug/g tissue [2, 19]: 0 ug drug/g tissue
Vancomycin in plasma [2, 19]: 0.3917 µg/mL
Vancomycin in muscle, ug drug/g tissue [2, 20]: 0 ug drug/g tissue
Vancomycin in plasma [2, 20]: 0.6404 µg/mL
Vancomycin in muscle, ug drug/g tissue [2, 21]: 0 ug drug/g tissue
Vancomycin in plasma [2, 21]: 0.8299 µg/mL
Vancomycin in muscle, ug drug/g tissue [2, 22]: 0 ug drug/g tissue
Vancomycin in plasma [2, 22]: 0.7352 µg/mL
Vancomycin in muscle, ug drug/g tissue ([2]; single 25 mg/Kg intramedullary dose, 48 h, HPLC, sample 5-3): 0 ug drug/g tissue
Vancomycin in muscle, ug drug/g tissue [2, 23]: 3.96 ug drug/g tissue
Vancomycin in plasma [2, 23]: 0.593 µg/mL
Vancomycin in muscle, ug drug/g tissue ([2]; single 25 mg/Kg intramedullary dose, 72 h, HPLC, sample 6-1): 0 ug drug/g tissue
Vancomycin in muscle, ug drug/g tissue [2, 24]: 0 ug drug/g tissue
Vancomycin in plasma [2, 24]: -0.03475 µg/mL
Vancomycin in muscle, ug drug/g tissue [2, 25]: 2.758 ug drug/g tissue
Vancomycin in plasma [2, 25]: 0.04816 µg/mL
Vancomycin in muscle, ug drug/g tissue [2, 26]: 0 ug drug/g tissue
Vancomycin in plasma [2, 26]: 0.2495 µg/mL
Vancomycin in muscle, ug drug/g tissue [2, 27]: 0 ug drug/g tissue
Vancomycin in plasma [2, 27]: -0.165 µg/mL
Vancomycin in muscle, ug drug/g tissue [2, 28]: 0 ug drug/g tissue
Vancomycin in plasma [2, 28]: -0.165 µg/mL
Vancomycin in muscle, ug drug/g tissue [2, 29]: 4.819 ug drug/g tissue
Vancomycin in plasma [2, 29]: -0.165 µg/mL
Vancomycin in muscle, ug drug/g tissue [2, 30]: 0 ug drug/g tissue
Vancomycin in plasma [2, 30]: -0.165 µg/mL
Vancomycin concentration in the gastrocnemius muscle, first 4h post administration [2, 31]: > 100 µg/g
Vancomycin level in the gastrocnemius muscle by 24h [2, 31]: near undetectable levels
Vancomycin concentration detected in the tibia over the 96-h study period ([2]; single 25 mg/Kg intramedullary dose, HPLC of pulverized tissue): > 100 µg/g
Vancomycin detected in the blood plasma for the entirety of the study ([2]; single 25 mg/Kg intramedullary dose, HPLC, 96 h study): Little to no vancomycin was detected
Time a supratherapeutic antimicrobial dose (>100 μg/mL) was maintained in the surrounding muscle ([2]; single 25 mg/Kg intramedullary dose, n = 4 per time point): < 6 h
Viable bacteria in tibia of treated rats ([3]; rat tibia inoculated with S. aureus Xen 36, single 25 mg/Kg intramedullary dose, end of 14-day study): < 200 CFU/g
Signs of infection around the surgical site ([3]; rat, S. aureus Xen 36, prophylactic single 25 mg/Kg intramedullary dose, 14 days): no signs of infection
Bacteria in the muscle and plasma samples of treated rats ([3]; rat, S. aureus Xen 36, single 25 mg/Kg intramedullary dose, end of study): No bacteria were detected
Ave Log10 CFU/muscle ([3]; treated rats, explanted muscle at end of 14-day study, mean of n = 9, values of 100 CFU = below detection limit): 2.00 Log10 CFU/muscle
Ave Log10 CFU/tibia ([3]; treated rats, explanted tibia at end of 14-day study, mean of n = 9, values of 100 CFU = below detection limit): 2.09 Log10 CFU/tibia
Log10 CFU/tibia ([3]; treated, end of study, rat K-11, 2.00 = below detection limit): 2.81 Log10 CFU/tibia
Vancomycin concentrations leading to near total destruction [4]: over 10 mg/mL
Vancomycin concentrations leading to significant reductions in viability [4]: higher than 5 mg/mL
Vancomycin concentration that caused cell death [5]: 10 mg/mL
